Three compounds from patent US4273775A, “Hydantoin derivatives, anti-diabetic compositions thereof, and method of use thereof” (Pfizer Inc., priority 1980, dated 1981) can be followed below.

The subject of experiment [1] is sorbitol accumulation in the sciatic nerve of streptozotocinized rats. Kind of experiment: inhibition of sorbitol accumulation in the sciatic nerve of streptozotocinized (diabetic) rats. The class given is in vivo. To be noted: measured 27 hours after induction of diabetes, vs untreated. The method, then:
The activity of the compounds of the present invention, as agents for the control of chronic diabetic complications, is determined by their ability to successfully pass one or more of the following standard biological and/or pharmacological tests, viz., (1) measuring their ability to inhibit the enzyme activity of isolated aldose reductase; (2) measuring their ability to reduce or inhibit sorbitol accumulation in the sciatic nerve of acutely streptozotocinized (i.e., diabetic) rats; (3) measuring their ability to reverse already-elevated sorbitol levels in the sciatic nerve and lens of chronic streptozotocin-induced diabetic rats; (4) measuring their ability to prevent or inhibit galactitol formation in the lens of acutely galactosemic rats, and (5) measuring their ability to delay cataract formation and reduce the severity of lens opacities in chronic galactosemic rats. The following tetrahydroquinoline-derived spiro-hydantoin compounds of Examples 1 and 3-4, respectively, were tested for their ability to reduce or inhibit sorbitol accumulation in the sciatic nerve of streptozotocinized (i.e., diabetic) rats by the procedure essentially described in U.S. Pat. No. 3,821,383. In the present study, the amount of sorbitol accumulation in the sciatic nerves was measured 27 hours after induction of diabetes. The compounds were administered orally at the dose levels indicated at 4, 8 and 24 hours following the administration of streptozotocin. The results obtained in this manner are presented below in terms of percent inhibition (%) afforded by the test compound as compared to the case where no compound was administered (i.e., the untreated animal where sorbitol levels normally rise from approximately […]. tissue to as high as 400 mM/g. tissue in the 27-hour test period): […]

The test system of experiment [2] is sorbitol levels in diabetic rats. Kind of experiment: control (inhibition) of the formation of sorbitol levels in diabetic rats, oral. The conditions noted are these: 5.0 mg./kg. to 25 mg./kg. The experiment is classed as in vivo. The text has this:
As previously indicated, the tetrahydroquinoline-derived spiro-hydantoin compounds of this invention are all readily adapted to therapeutic use as aldose reductase inhibitors for the control of chronic diabetic complications, in view of their ability to reduce lens sorbitol levels in diabetic subjects to a statistically significant degree. […] The other compounds of this invention also cause similar results. Furthermore, all the herein described compounds of this invention can be administered by either the oral or parenteral routes of administration, for the present purposes at hand, without causing any significant untoward pharmacological side reactions to occur in the subject to whom they are so administered. In general, these compounds are ordinarily administered in dosages ranging from about 0.25 mg. to about 25 mg. per kg. of body weight per day, although variations will necessarily occur depending upon the weight and condition of the subject being treated and the particular route of administration chosen.

[3] abbreviates: 5.0 mg./kg. orally at 4, 8 and 24 hours after streptozotocin.

Take `CN1CCC2(NC(=O)NC2=O)c2ccccc21.Cl` (stereo not shown) [Product of Example 1, 1'-methyl-1',2',3',4'-tetrahydro-spiro-[imidazolidine-4,4'-quinoline]-2,5-dione hydrochloride]: the “Percent Inhibition (%) of sorbitol accumulation in sciatic nerve” value (from here on “Percent Inhibition (%)”) in experiment [1] (setting [3]) came to 19%.
For the compound `O=C1NC(=O)C2(CCNc3cc(Cl)ccc32)N1` (stereo not shown) [Product of Example 3, 7'-chloro-1',2',3',4'-tetrahydro-spiro-[imidazolidine-4,4'-quinoline]-2,5-dione], the “Percent Inhibition (%)” value in experiment [1] (setting [3]) is recorded as 23%.
Turning to `O=C1NC(=O)C2(CCNc3ccc(Cl)cc32)N1` (stereo not shown) [Product of Example 4, 6'-chloro-1',2',3',4'-tetrahydro-spiro-[imidazolidine-4,4'-quinoline]-2,5-dione], the “Percent Inhibition (%)” value in experiment [1] (10 mg./kg. orally at 4, 8 and 24 hours after streptozotocin) is reported as 80%. In addition, in experiment [2], the “control (i.e., inhibit) the formation of sorbitol levels in diabetic rats” value is given as “consistently control (i.e., inhibit) the formation of sorbitol levels in diabetic rats to a significantly high degree”.
